Experimental data taken from patent publication US11331268B2, “Taste masking product” (The University of Western Australia, priority 2016, dated 2022).
Counter-ions that a name gives are not always drawn. Like-named read-outs stand apart in the source and are kept apart here.

Key:
[1] = cited from earlier work
Sprague Dawley rats = test: Rat Brief-Access Taste Aversion (BATA) model; format: in vivo
Method: The rat ‘Brief-Access Taste Aversion’ (BATA) model was used to assess the taste of the midazolam chocolate tablet formulation relative to control samples. Ten male Sprague Dawley rats (average weight […]) previously trained for the experiments were used and two independent tasting evaluations were conducted over 2 days.
Prior to the experiments, the rats were water-deprived for 22 hours but had access to food ad libitum. Each rat was placed into the Lickometer Davis Rig MS-160 (DiLog Instruments, Tallahassee, Fla., USA) for a 40-minute session where it would be presented with 16 sipper tubes mounted on a moving rack controlled by the Davis Collect Data software. The taste samples were each presented to the rat for 8 seconds, in a random order specified by the computer program. Over the 40-minute session, a sample would have been presented to the rat four times, with a 2-second water rinse given between samples. As the rats licked on the sipper, the number of licks was recorded electronically and transmitted to a database on a computer.
The 5 mg midazolam HCl chocolate tablets were assessed against control samples, which included deionized water, vehicle (water adjusted to pH 5 with HCl), 1 mg/mL solution of midazolam in the vehicle, a 2.5 mg/mL oral midazolam syrup manufactured by AUSPMAN, and chocolate placebo tablets. Simulating the advice to patients to chew the chocolate tablet and then swallow, the placebo and midazolam-loaded chocolate tablets were prepared for the taste evaluation by grinding each chocolate tablet in 2 mL of water, which mimics the volume of saliva, using a mortar and pestle. The resultant liquid preparations were then presented to the rats. […]
Aversion to the taste of a sample was indicated by a significant reduction in the number of licks when the sample was presented to the rats. […] Data was analysed using the RStudio software (https://www.rstudio.com) and applying the non-parametric Kruskal Wallis test with post-hoc Tukey's test for paired comparisons.

[2] = cited from earlier work; remark: listed apart in the source

Cc1ncc2n1-c1ccc(Cl)cc1C(c1ccccc1F)=NC2 [Midazolam, midazolam]
solubility in water ([1]; low pH): > 2500 µg/mL
solubility in water ([1]; pH>5): less than 0.1 mg/ml

Cc1ncc2n1-c1ccc(Cl)cc1C(c1ccccc1F)=NC2 [midazolam HCl, midazolam hydrochloride]
IC50 (Sprague Dawley rats; Rattus norvegicus, midazolam HCl standard solutions in vehicle (water pH 5), n=2, read-out: IC50 (dose-response of number of licks)): 300 ± 290 µg/mL
detection threshold for the bitter taste (Sprague Dawley rats; rodent model): about 0.03 mg/ml
concentration receiving comparable numbers of licks to blank vehicle (Sprague Dawley rats; standard solutions in vehicle): up to 0.03 mg/mL

COc1cccc(C2(O)CCCCC2CN(C)C)c1 (stereo not drawn) [tramadol HCl, tramadol hydrochloride]
solubility in aqueous media [2]: ≤ 2000 µg/mL
